Test results: ChEMBL document CHEMBL1201862, “PubChem BioAssay data set” (2004)
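Compound exposure: 48 hours, 5 concentrations, 96-well plates. GI50 = concentration required for 50% inhibition of growth.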 Active and inactive are the calls of the source. No stated cut-off is given here; in the data, active = GI50 up to about 1.1 µM and inactive = higher.

Experiments:
Experiment in all cases: DTP human tumour cell line panel, 48 h
A549 = test system: A549
COLO 205 = test system: COLO 205
HT-29 = test system: HT-29
IGROV-1 = test system: IGROV-1
Malme-3M = test system: Malme-3M
NCI-H23 = test system: NCI-H23
NCI-H522 = test system: NCI-H522
OVCAR-8 = test system: OVCAR-8
RXF 393 = test system: RXF 393
SF-295 = test system: SF-295
SF-539 = test system: SF-539
UACC-62 = test system: UACC-62
HCC 2998 = test system: HCC 2998
OVCAR-5 = test system: OVCAR-5
SK-MEL-5 = test system: SK-MEL-5

SMILES | GI50 (A549) | GI50 (COLO 205) | GI50 (HT-29) | GI50 (IGROV-1) | GI50 (Malme-3M) | GI50 (NCI-H23) | GI50 (NCI-H522) | GI50 (OVCAR-8) | GI50 (RXF 393) | GI50 (SF-295) | GI50 (SF-539) | GI50 (UACC-62) | GI50 (HCC 2998) | GI50 (OVCAR-5) | GI50 (SK-MEL-5)
CC(=O)NC1CC2Oc3ccc(C)cc3C(C)(O2)C1O (configuration not stated) | > 100 µM (inactive) | > 100 µM (inactive) | > 100 µM (inactive) | > 100 µM (inactive) | > 100 µM (inactive) | > 100 µM (inactive) | > 100 µM (inactive) | > 100 µM (inactive) | > 100 µM (inactive) | > 100 µM (inactive) | > 100 µM (inactive) | > 100 µM (inactive) | – | – | –
CC(=O)O/C=C(/C=C/OC(C)=O)C(C/C=C(\C)C#CC=C(C)C)OC(C)=O (configuration not stated) | > 100 µM (inactive) | 27.9 µM (inactive) | 30.7 µM (inactive) | 30.4 µM (inactive) | 72.6 µM (inactive) | 38.6 µM (inactive) | 25.2 µM (inactive) | 37 µM (inactive) | – | 61.5 µM (inactive) | 22.8 µM (inactive) | 27.4 µM (inactive) | > 100 µM (inactive) | > 100 µM (inactive) | 72.6 µM (inactive)
O=C(Nc1ccc(/N=N/c2ccccc2)cc1)Sc1ccccc1C(=O)O | > 100 µM (inactive) | > 100 µM (inactive) | > 100 µM (inactive) | 0.7 µM (active) | – | > 100 µM (inactive) | > 100 µM (inactive) | > 100 µM (inactive) | 71.3 µM (inactive) | > 100 µM (inactive) | > 100 µM (inactive) | > 100 µM (inactive) | > 100 µM (inactive) | > 100 µM (inactive) | –
O=S(OC12CC3CC(CC(C3)C1)C2)c1cc(Cl)cc(Cl)c1OCc1ccccc1 (configuration not stated) | – | – | > 100 µM (inactive) | – | > 100 µM (inactive) | > 100 µM (inactive) | 19 µM (inactive) | – | > 100 µM (inactive) | – | > 100 µM (inactive) | > 100 µM (inactive) | > 100 µM (inactive) | > 100 µM (inactive) | –
O=C1/C(=N\O)c2ccccc2S1(=O)=O | > 100 µM (inactive) | 13.6 µM (inactive) | > 100 µM (inactive) | > 100 µM (inactive) | 55.3 µM (inactive) | – | 60 µM (inactive) | > 100 µM (inactive) | > 100 µM (inactive) | > 100 µM (inactive) | > 100 µM (inactive) | 95.9 µM (inactive) | 18.4 µM (inactive) | > 100 µM (inactive) | > 100 µM (inactive)
COc1ccccc1CC(C)N (configuration not stated) | > 100 µM (inactive) | > 100 µM (inactive) | > 100 µM (inactive) | > 100 µM (inactive) | > 100 µM (inactive) | > 100 µM (inactive) | > 100 µM (inactive) | > 100 µM (inactive) | > 100 µM (inactive) | > 100 µM (inactive) | > 100 µM (inactive) | > 100 µM (inactive) | > 100 µM (inactive) | > 100 µM (inactive) | > 100 µM (inactive)
Cn1nc2ccc3nccc(N(CCO)CCO)c3c2n1 | > 100 µM (inactive) | > 100 µM (inactive) | > 100 µM (inactive) | > 100 µM (inactive) | > 100 µM (inactive) | > 100 µM (inactive) | > 100 µM (inactive) | > 100 µM (inactive) | > 100 µM (inactive) | > 100 µM (inactive) | > 100 µM (inactive) | > 100 µM (inactive) | > 100 µM (inactive) | > 100 µM (inactive) | > 100 µM (inactive)
CCOC(=O)C1Nc2ccc([N+](=O)[O-])cc2[C@H]2OCC[C@@H]12 (some centres not stated) | > 100 µM (inactive) | > 100 µM (inactive) | > 100 µM (inactive) | > 100 µM (inactive) | > 100 µM (inactive) | > 100 µM (inactive) | > 100 µM (inactive) | > 100 µM (inactive) | > 100 µM (inactive) | > 100 µM (inactive) | > 100 µM (inactive) | > 100 µM (inactive) | > 100 µM (inactive) | > 100 µM (inactive) | > 100 µM (inactive)
